Experimental data published in patent publication US20040105856A1 (priority 2002, published 2004).

Columns and labels:
[1] = target: recombinant human histamine H4 receptor (Homo sapiens, UniProt Q9H3N8); conditions: histamine 100 pM-100 uM, forskolin 3 uM
[2] = tested on: croton oil induced topical inflammation in mice; conditions: H4 ANTAG #1 10 mg/kg

Chain of recombinant human histamine H4 receptor (Q9H3N8 whole entry): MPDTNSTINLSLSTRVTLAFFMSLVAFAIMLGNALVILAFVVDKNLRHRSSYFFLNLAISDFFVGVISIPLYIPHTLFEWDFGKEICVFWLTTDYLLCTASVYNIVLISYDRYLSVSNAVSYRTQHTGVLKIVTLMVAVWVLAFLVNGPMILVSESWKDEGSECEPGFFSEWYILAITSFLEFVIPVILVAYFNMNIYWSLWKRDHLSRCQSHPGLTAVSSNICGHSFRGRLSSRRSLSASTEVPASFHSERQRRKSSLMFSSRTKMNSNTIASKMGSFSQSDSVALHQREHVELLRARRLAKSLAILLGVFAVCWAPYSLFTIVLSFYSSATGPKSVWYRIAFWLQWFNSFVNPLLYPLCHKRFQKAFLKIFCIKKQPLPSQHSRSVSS

| SMILES | Activation of the receptor (decrease of cAMP content in response to forskolin) [1] | Difference in ear thickness (×0.01 mm), Mean ([2]; s.c. 30 min before and 2, 4 h after croton oil, Indomethacin 30 mg/kg, measured 6 h after croton oil) [×0.01 mm] | % inhib of ear swelling ([2]; versus vehicle group, Indomethacin 30 mg/kg s.c.) |
| --- | --- | --- | --- |
| NCCc1c[nH]cn1 [Histamine] | specifically activated |  |  |
| COc1ccc2c(c1)c(CC(=O)O)c(C)n2C(=O)c1ccc(Cl)cc1 [Indomethacin] |  | 10.0 | (−40%) |
